The text below walks through data of article PMC7842235 (Journal of proteome research, 2020).

Molecules are shown by their SMILES. pIC50: −log10 of the molar value.

The target in the test is T1, Tryp-N (Thermochaetoides thermophila, UniProt G0SEK4).
T1 sequence (G0SEK4 68-292): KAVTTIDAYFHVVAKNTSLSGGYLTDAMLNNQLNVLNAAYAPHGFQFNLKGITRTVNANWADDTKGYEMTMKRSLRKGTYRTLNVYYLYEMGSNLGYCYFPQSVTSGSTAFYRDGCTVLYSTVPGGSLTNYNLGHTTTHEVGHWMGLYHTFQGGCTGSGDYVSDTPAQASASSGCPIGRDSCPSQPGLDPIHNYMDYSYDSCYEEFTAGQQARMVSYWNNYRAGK
In words: protease activity assay, probably FITC-labeled casein. It is filed as biochemical.

As to `N=C(N)c1ccccc1` [benzamidine], the pIC50 was around 3.30.

Usually pIC50 stands for −log10 of the IC50, conventionally taken in molar units.
